Here are results for ten compounds from paper PMC5118688 (Scientific Reports, 2016).

For orientation: IC50 means the concentration at which inhibition is half-maximal.

Structures are written as SMILES. Converted amounts (≈) assume the structure as drawn. Like-named read-outs stand apart in the source and are kept apart here.

The test system of experiment [1] is mAb3C9. The experiment in a line: optimized chemosynthesized antigen-based dcELISA (mAb3C9 and hapten 6-OVA). The conditions noted are these: for CR (%): Hapten 6-OVA, (IC50 of parathion-methyl/IC50 of pesticide) × 100.
Protocol: (§1) The dcELISA procedure was performed as below. First, the plate (Costar, Corning Inc., New York, USA) was coated with coating antigen (100 μL/well in 1 × PBS) for 1 h at 37 °C. Then, the wells were washed four times with PBST (1 × PBS with 0.05% (v/v) Tween-20) and blocked with 2% skim milk (200 μL/well) for 1 h at 37 °C. After washing four times, 50 μL analyte in MeOH-water solution and 50 μL mAb-HRP in PBS were added. The plate was incubated for 1 h at 37 °C and then washed four times before adding TMB solution (100 μL/well). After incubation for 15 min at 37 °C, 50 μL/well of H2SO4 (2 mol/L) was added to stop the reaction, and the absorbance was recorded at 450 nm using the Model 680 plate reader (Bio-Rad, USA).
(§2) 18 kinds of O,O-dimethyl OPs and 6 kinds of O,O-diethyl OPs were purchased from National Standards of China and used for the selectivity and sensitivity study using the optimized dcELISA procedure. […] The IC50 value and detection limit of each OP were calculated. The CR value, which was used to evaluate the selectivity of the method, was calculated using the following equation:
The test system of a further experiment is mAb4D11. The experiment in a line: optimized mAb4D11-based dcELISA.
The subject of experiment [2] is mAb3C9. Nature of the experiment: mimotope-based dcELISA (mAb3C9 and M20-GST-BAD/SA-HRP competitor). Format: binding, mouse. Particulars: for CR (%): M20-GST-BAD, (IC50 of parathion-methyl/IC50 of pesticide) × 100. How it is done:
To develop a mimotope-based dcELISA, the biotinylated mimotope fusion protein was firstly assembled with streptavidin-HRP conjugate (SA-HRP) utilized the high affinity of biotin and streptavidin. The assembly process was just mixing a certain amount of biotinylated mimotope fusion protein with SA-HRP and incubating them at 4 °C overnight before use as an HRP-labeled competitor.
An innovative mimotope-based dcELISA was developed and performed as below. […] TMB solution (100 μL/well) was added and incubated for 15 min at 37 °C.
The optimal condition for mimotope-based dcELISA was optimized as chemosynthesized antigen-based dcELISA. The selectivity and sensitivity of the developed mimotope-based dcELISA for the 24 OPs were also determined under the optimum condition.

The conditions of experiment [3]: ref Hua et al. 11; cited from earlier work.
Setting [4] is: mAb3C9, coating antigen Hapten 6-OVA.

Protocol for mAb4D11: as §1, §2

With `CCOP(=S)(OCC)SCn1nnc2ccccc2c1=O` [Azinphos-ethyl], the “CR (%)” value is 4.9% in the experiment on mAb3C9 [1], under 0.3% with mAb4D11 (mAb4D11-based dcELISA) and 4.7% in the experiment on mAb3C9 [2]. Moreover, the “LOD (IC10)” value with mAb3C9 [1] (mAb3C9, Hapten 6-OVA) stood at 0.0216 µg/mL; in the experiment on mAb3C9 [2] (mAb3C9, M20-GST-BAD) it was 0.0264 µg/mL. Besides, the “IC50 ± SD” value with mAb3C9 [1] (setting [4]) was 0.0953 ± 0.0042 µg/mL (≈ 0.276 µM); with mAb3C9 [2] (mAb3C9, competitor M20-GST-BAD), 0.1074 ± 0.0032 µg/mL (≈ 0.311 µM). In addition, the concentration for half-maximal inhibition (IC50) in the experiment with mAb4D11 (mAb4D11-based dcELISA) is over 5 µg/mL.

Consider `COP(=S)(OC)SCn1nnc2ccccc2c1=O` [Azinphos-methyl], for which the “CR (%)” value with mAb3C9 [1] is listed as 306.6%; in the experiment with mAb4D11 (mAb4D11-based dcELISA), under 0.3%; in the experiment on mAb3C9 [2], 290.8%. In addition, the “LOD (IC10)” value is 0.0004 µg/mL in the experiment on mAb3C9 [1] (mAb3C9, Hapten 6-OVA) and 0.0004 µg/mL in the experiment on mAb3C9 [2] (mAb3C9, M20-GST-BAD). Also, the “IC50 ± SD” value in the experiment with mAb3C9 [1] (setting [4]) came out at 0.0015 ± 0.0001 µg/mL (≈ 0.00473 µM); with mAb3C9 [2] (mAb3C9, competitor M20-GST-BAD), 0.0017 ± 0.0001 µg/mL (≈ 0.00536 µM). Further, the IC50 in the experiment with mAb4D11 (mAb4D11-based dcELISA) was over 5 µg/mL; in experiment [3], over 100 µg/mL.

As for `COP(=S)(OC)Oc1cc(Cl)c(Br)cc1Cl` [Bromophos-methyl], the “CR (%)” value in the experiment with mAb3C9 [1] was found to be 6.2%; in the experiment on mAb4D11 (mAb4D11-based dcELISA), 11.6%; in the experiment on mAb3C9 [2], 6.2%. Also, the “LOD (IC10)” value in the experiment on mAb3C9 [1] (mAb3C9, Hapten 6-OVA) worked out at 0.0195 µg/mL; with mAb3C9 [2] (mAb3C9, M20-GST-BAD), 0.0194 µg/mL. Moreover, the “IC50 ± SD” value with mAb3C9 [1] (setting [4]) is 0.0755 ± 0.0041 µg/mL (≈ 0.206 µM); in the experiment with mAb3C9 [2] (mAb3C9, competitor M20-GST-BAD) it was 0.0822 ± 0.0024 µg/mL (≈ 0.225 µM). The same compound registered an IC50 with mAb4D11 (mAb4D11-based dcELISA) of 0.1246 µg/mL (≈ 0.34 µM). The compound further registered an LOD in the experiment with mAb4D11 (mAb4D11-based dcELISA) of 31.4 ng/mL.

Regarding `COP(=S)(OC)Oc1ccc(C#N)cc1` [Cyanophos], the “CR (%)” value came out at 152.8% with mAb3C9 [1], 82.5% with mAb4D11 (mAb4D11-based dcELISA) and 146.2% with mAb3C9 [2]. The “LOD (IC10)” value in the experiment with mAb3C9 [1] (mAb3C9, Hapten 6-OVA) was 0.0006 µg/mL; with mAb3C9 [2] (mAb3C9, M20-GST-BAD) it was 0.0007 µg/mL. Further, the “IC50 ± SD” value in the experiment with mAb3C9 [1] (setting [4]) came out at 0.0031 ± 0.0002 µg/mL (≈ 0.0127 µM); in the experiment on mAb3C9 [2] (mAb3C9, competitor M20-GST-BAD) it was 0.0035 ± 0.0001 µg/mL (≈ 0.0144 µM). In addition, the IC50 in the experiment with mAb4D11 (mAb4D11-based dcELISA) is 0.0176 µg/mL (≈ 0.0724 µM); in experiment [3], 0.0203 µg/mL (≈ 0.0835 µM). For the same compound, the LOD in the experiment with mAb4D11 (mAb4D11-based dcELISA) was found to be 2.3 ng/mL.

Turning to `CCOP(=S)(OCC)Oc1cc(C)nc(C(C)C)n1` [Diazinon], the “CR (%)” value is recorded as 0.3% in the experiment on mAb3C9 [1], 5.0% in the experiment with mAb4D11 (mAb4D11-based dcELISA) and 0.2% in the experiment on mAb3C9 [2]. Moreover, the “LOD (IC10)” value with mAb3C9 [1] (mAb3C9, Hapten 6-OVA) is 0.3917 µg/mL; in the experiment on mAb3C9 [2] (mAb3C9, M20-GST-BAD), 0.4123 µg/mL. The “IC50 ± SD” value in the experiment on mAb3C9 [1] (setting [4]) was 1.8124 ± 0.0461 µg/mL (≈ 5.95 µM); in the experiment with mAb3C9 [2] (mAb3C9, competitor M20-GST-BAD), 2.0648 ± 0.0417 µg/mL (≈ 6.78 µM). In the experiment on mAb4D11 (mAb4D11-based dcELISA), this compound displayed an IC50 of 0.2883 µg/mL (≈ 0.947 µM). This compound showed an LOD with mAb4D11 (mAb4D11-based dcELISA) of 73.2 ng/mL.

Take `COP(=O)(OC)OC=C(Cl)Cl` [Dichlorvos]: the figures for the “CR (%)” value in the experiment on mAb3C9 [1], in the experiment on mAb4D11 (mAb4D11-based dcELISA) and in the experiment with mAb3C9 [2] were 3.5%, 0.8% and 3.5%, respectively. The “LOD (IC10)” value was found to be 0.024 µg/mL with mAb3C9 [1] (mAb3C9, Hapten 6-OVA) and 0.0312 µg/mL in the experiment with mAb3C9 [2] (mAb3C9, M20-GST-BAD). The “IC50 ± SD” value in the experiment with mAb3C9 [1] (setting [4]) came to 0.1321 ± 0.0061 µg/mL (≈ 0.598 µM); with mAb3C9 [2] (mAb3C9, competitor M20-GST-BAD) it was 0.1454 ± 0.0038 µg/mL (≈ 0.658 µM). Also, the IC50 is 1.8279 µg/mL (≈ 8.27 µM) in the experiment with mAb4D11 (mAb4D11-based dcELISA) and over 100 µg/mL in experiment [3]. In addition, in the experiment with mAb4D11 (mAb4D11-based dcELISA), the LOD is on record as 437.2 ng/mL.

On to `CNC(=O)CSP(=S)(OC)OC` [Dimethoate], for which, in the experiment on mAb3C9 [1], the “IC50 ± SD” value came out at 0.1703 ± 0.0073 µg/mL (≈ 0.743 µM), the “LOD (IC10)” value was 0.0184 µg/mL and the “CR (%)” value was found to be 2.7%. Further, in the experiment with mAb4D11, the “CR (%)” value is reported as under 0.3% and the IC50 is over 5 µg/mL. Moreover, in the experiment on mAb3C9 [2], the “IC50 ± SD” value is 0.1893 ± 0.0081 µg/mL (≈ 0.826 µM), the “LOD (IC10)” value came out at 0.0284 µg/mL and the “CR (%)” value came out at 2.7%.

As to `CCOP(=S)(Oc1ccc([N+](=O)[O-])cc1)c1ccccc1` (centres unmarked) [EPN], in experiment [3], the IC50 was 0.0183 µg/mL (≈ 0.0566 µM).

As to `COP(=S)(OC)Oc1ccc(S(=O)(=O)N(C)C)cc1` [Famphur], the “CR (%)” value with mAb3C9 [1] worked out at 347.8%; with mAb4D11 (mAb4D11-based dcELISA), 4.2%; in the experiment on mAb3C9 [2], 339.6%. Further, the “LOD (IC10)” value in the experiment on mAb3C9 [1] (mAb3C9, Hapten 6-OVA) stood at 0.0003 µg/mL; in the experiment on mAb3C9 [2] (mAb3C9, M20-GST-BAD) it was 0.0004 µg/mL. The “IC50 ± SD” value in the experiment with mAb3C9 [1] (setting [4]) was 0.0013 ± 0.0001 µg/mL (≈ 0.004 µM); in the experiment on mAb3C9 [2] (mAb3C9, competitor M20-GST-BAD) it was 0.0015 ± 0.0001 µg/mL (≈ 0.00461 µM). In addition, the IC50 in the experiment on mAb4D11 (mAb4D11-based dcELISA) was 0.3464 µg/mL (≈ 1.06 µM); in experiment [3] it was 58.2157 µg/mL (≈ 179 µM). The compound further displayed an LOD with mAb4D11 (mAb4D11-based dcELISA) of 80.3 ng/mL.

As to `COP(=S)(OC)Oc1cc(Cl)c(Cl)cc1Cl` [Fenchlorphos], the “CR (%)” value amounted to 10.5% in the experiment with mAb3C9 [1], 26.4% with mAb4D11 (mAb4D11-based dcELISA) and 10.1% with mAb3C9 [2]. Further, the “LOD (IC10)” value in the experiment with mAb3C9 [1] (mAb3C9, Hapten 6-OVA) was found to be 0.0074 µg/mL; in the experiment on mAb3C9 [2] (mAb3C9, M20-GST-BAD), 0.0093 µg/mL. In addition, the “IC50 ± SD” value in the experiment on mAb3C9 [1] (setting [4]) worked out at 0.0443 ± 0.0022 µg/mL (≈ 0.138 µM); in the experiment with mAb3C9 [2] (mAb3C9, competitor M20-GST-BAD), 0.0501 ± 0.0021 µg/mL (≈ 0.156 µM). The same compound displayed an IC50 with mAb4D11 (mAb4D11-based dcELISA) of 0.055 µg/mL (≈ 0.171 µM). Also, the LOD with mAb4D11 (mAb4D11-based dcELISA) is on record as 13.3 ng/mL.
